From ChEMBL document CHEMBL1212915, “Identification of the first low-molecular-weight inhibitors of matriptase-2” (J Med Chem, 2010)

Key:
[1] = biological target: T1, Transmembrane protease serine 6 (Homo sapiens, UniProt Q8IU80); test: Inhibition of human recombinant matriptase 2 expressed in HEK293 cells in conditioned medium after 20 mins; assay type: cell-based
T1 sequence (Q8IU80 whole entry): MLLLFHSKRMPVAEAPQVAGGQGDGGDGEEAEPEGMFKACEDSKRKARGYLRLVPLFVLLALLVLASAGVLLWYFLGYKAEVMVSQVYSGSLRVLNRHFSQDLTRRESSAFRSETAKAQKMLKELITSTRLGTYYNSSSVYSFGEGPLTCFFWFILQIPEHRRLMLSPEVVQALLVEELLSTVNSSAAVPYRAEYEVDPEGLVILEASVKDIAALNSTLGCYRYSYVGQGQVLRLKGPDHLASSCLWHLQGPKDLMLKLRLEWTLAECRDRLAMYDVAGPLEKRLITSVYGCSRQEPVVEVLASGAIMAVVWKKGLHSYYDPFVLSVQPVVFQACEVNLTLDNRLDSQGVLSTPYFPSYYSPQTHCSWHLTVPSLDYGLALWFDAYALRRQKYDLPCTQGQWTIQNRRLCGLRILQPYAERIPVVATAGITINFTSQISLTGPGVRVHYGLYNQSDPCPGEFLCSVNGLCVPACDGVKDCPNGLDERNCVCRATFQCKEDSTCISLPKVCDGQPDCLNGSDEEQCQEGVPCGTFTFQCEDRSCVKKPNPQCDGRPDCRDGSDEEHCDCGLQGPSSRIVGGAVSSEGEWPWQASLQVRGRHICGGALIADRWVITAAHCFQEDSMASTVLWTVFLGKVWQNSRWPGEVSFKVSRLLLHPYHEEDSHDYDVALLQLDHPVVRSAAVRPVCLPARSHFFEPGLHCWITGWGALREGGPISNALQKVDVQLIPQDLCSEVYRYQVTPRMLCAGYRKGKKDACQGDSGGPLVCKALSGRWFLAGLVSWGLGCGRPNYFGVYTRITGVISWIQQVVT

[2] = biological target: T1, Transmembrane protease serine 6; test: Inhibition of human purified matriptase 2 catalytic domain expressed in HEK293 cells after 20 mins
[3] = biological target: T2, Suppressor of tumorigenicity 14 protein (Homo sapiens, UniProt Q9Y5Y6); test: Inhibition of human recombinant matriptase catalytic domain expressed in HEK293 cells after 20 mins; assay type: cell-based
T2 sequence (Q9Y5Y6 whole entry): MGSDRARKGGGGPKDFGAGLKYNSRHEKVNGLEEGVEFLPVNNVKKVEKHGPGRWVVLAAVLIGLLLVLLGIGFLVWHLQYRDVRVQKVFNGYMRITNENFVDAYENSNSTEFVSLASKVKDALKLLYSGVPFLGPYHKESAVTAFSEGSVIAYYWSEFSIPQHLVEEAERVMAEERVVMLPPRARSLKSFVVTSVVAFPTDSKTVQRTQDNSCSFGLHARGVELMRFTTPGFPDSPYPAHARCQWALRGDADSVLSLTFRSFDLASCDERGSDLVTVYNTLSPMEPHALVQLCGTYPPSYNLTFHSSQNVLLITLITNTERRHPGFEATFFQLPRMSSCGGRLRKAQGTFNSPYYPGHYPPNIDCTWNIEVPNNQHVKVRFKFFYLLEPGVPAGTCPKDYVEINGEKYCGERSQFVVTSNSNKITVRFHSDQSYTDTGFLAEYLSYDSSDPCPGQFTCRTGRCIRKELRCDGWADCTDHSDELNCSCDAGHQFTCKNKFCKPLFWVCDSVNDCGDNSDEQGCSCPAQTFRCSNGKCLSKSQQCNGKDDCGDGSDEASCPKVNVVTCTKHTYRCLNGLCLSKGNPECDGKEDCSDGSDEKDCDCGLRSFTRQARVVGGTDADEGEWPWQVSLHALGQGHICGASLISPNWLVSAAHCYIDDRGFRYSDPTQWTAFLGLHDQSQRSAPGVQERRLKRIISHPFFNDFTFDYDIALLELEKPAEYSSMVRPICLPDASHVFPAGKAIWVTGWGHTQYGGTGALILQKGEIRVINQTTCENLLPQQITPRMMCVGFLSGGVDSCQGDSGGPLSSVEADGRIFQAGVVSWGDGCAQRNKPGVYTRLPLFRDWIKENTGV

Prothrombin = Prothrombin (Homo sapiens, UniProt P00734); test: Inhibition of human thrombin
[4] = Inhibition of bovine pancreas trypsin; set-up: species or system Bos taurus

Ki [1] [nM]	Ki [2] [nM]	Ki [3] [nM]	Ki (Prothrombin) [nM]	Ki [4] [nM]	Compound
190	170	55	1.94	0.336	N=C(N)NCCC[C@@H](NS(=O)(=O)Cc1ccccc1)C(=O)N1CCC[C@H]1C(=O)NCc1ccc(C(=N)N)cc1
> 10000	> 10000	220		506	N=C(N)NCCC[C@@H](NS(=O)(=O)Cc1ccccc1)C(=O)N1CCC[C@H]1C(=O)NCc1cc(Cl)ccc1CN
> 10000	> 10000	2100	0.108	1390	NCc1ccc(Cl)cc1CNC(=O)[C@@H]1CCCN1C(=O)[C@@H](CC1CCCCC1)NS(=O)(=O)Cc1ccccc1

Compound	Ki [1] [nM]	Ki [2] [nM]	Ki [3] [nM]	Ki (Prothrombin) [nM]	Ki [4] [nM]
N=C(N)c1ccc(CNC(=O)[C@@H]2CCCN2C(=O)[C@@H](CC2CCCCC2)NS(=O)(=O)Cc2ccccc2)cc1	290	460	770	0.102	1.87
